Data from article PMC4859609, “Inhibition and Larvicidal Activity of Phenylpropanoids from Piper sarmentosum on Acetylcholinesterase against Mosquito Vectors and Their Binding Mode of Interaction” (PLoS ONE, 2016).

What was measured:
Ae. albopictus eggs = assay: Ovicidal activity (egg hatching); conditions: for mortality at 25 µg/mL: read-out: ovicidal activity (% of egg mortality), 25 μg/mL
[1] = test system: Cx. quinquefasciatus eggs; assay: Ovicidal activity (egg hatching); conditions: for mortality at 25 µg/mL: read-out: ovicidal activity (% of egg mortality), 25 μg/mL
Ae. aegypti eggs = assay: Ovicidal activity (egg hatching); conditions: for mortality at 25 µg/mL: read-out: ovicidal activity (% of egg mortality), 25 μg/mL
[2] = test system: blood-starved female Ae. aegypti; assay: Repellent activity (WHO procedure, treated forearm in cage); type: in vivo, Aedes aegypti; conditions: for % repellency: 300 μg/mL
Description: (§1) This study was carried out according to the method described by WHO standard procedure. Three-day-old blood-starved female of Ae.aegypti, Ae. albopictus and Cx. quinquefasciatus (100 each) were kept in a net cage (23 cm × 23 cm × 23 cm). Hands that had no contact with lotions, perfumes or perfumed soaps were exposed to the mosquito cage. Only 25 cm^2 dorsal side of the skin on each arm was exposed and the remaining area covered by rubber gloves. The tested substance was applied at several dosages, separately in the exposed area of the forearm. Acetone was served as control. The timing of the test depended on whether the tested mosquitoes were day or night biters. Ae.aegypti and Ae. albopictus were tested from 6 am to 9 am hours, while Cx. quinquefasciatus was tested from […] to 7 pm hours. Both control and treated arms were introduced simultaneously into the mosquito cage, and followed by gentle tapping on the sides of the experimental cages to activate the mosquitoes. Each test concentration was repeated four times. The volunteers conducted test for each concentration by inserting the treated and control arms into the same cage for one minute and repeated this action every five minutes. The mosquitoes that landed on the hand were recorded and then shaken off before imbibing any blood. The percentage of repellency was calculated by the following formula, %Repellency=[Ta−Tb/Ta]×100%,where
(§2) Ta: the number of mosquitoes in the control group.
(§3) Tb: the number of mosquitoes in the treated group.

Aedes albopictus larvae = assay: Larval bioassay (WHO larvicidal procedure), late 3rd or early 4th larvae; conditions: 24 hours; for dosage that can cause 50% mortality: larvae
Description: (§4) All tested insects used for the experiments were obtained from colonies cultured in the laboratory at 27 ± 2°C and 65 ± 5% relative humidity. To determine the susceptibility, three species of adult mosquitoes and larvae of Ae. aegypti, Ae. albopictus and Cx. quinquefasciatus were used as sample and were measured over a period of 1 year (2012–2013) in this study. Each different species was categorized and reared in laboratory as laboratory strains. Ae. aegypti, Ae. albopictus and Cx. quinquefasciatus were collected from cemetery near the Malaysia International Airport KLI, 2011. Mosquito larvae were placed in plastic containers located in cages (23cm x 23cm x 23cm) at laboratory condition with a photoperiod of 13 hours of daylight and 11 hours of darkness for emergence.
(§5) The larval bioassay was performed on late 3rd or early 4th larvae of Ae. aegypti, Ae. albopictus and Cx. quinquefasciatus according to the WHO larvicidal activity standard procedure. 15 mg of asaricin 1, isoasarone 2 and trans-asarone 3 were separately dissolved in 1 mL of acetone as stock solution and several concentrations (4 to 20 μg/mL) were prepared through serial dilution by mixing specific amount of stock solution with 250mL distilled water. Twenty five larvae of Ae. aegypti, Ae. albopictus and Cx. quinquefasciatus were separately introduced into the plastic cups containing appropriate concentrations of asaricin 1, isoasarone 2 and trans-asarone 3. Control was only treated with 1 mL acetone added to 250mL distilled water. Mortality of the tested larvae was recorded at the end of 24 hours. Each treatment was replicated four times.
(§6) %larvae mortality=Number of dead larvae/Total number of introduced larvae×100%

[3] = test system: Culex quinquefasciatus larvae; assay: as above; conditions: for mortality at 9.3 µg/mL: Culex quinquefasciatus, 24 h, read-out: % larvae mortality; for dosage that can cause 50% mortality: larvae; for dosage that can cause 50% mortality / % larvae mortality: 24 hours; for % larvae mortality: ≤ 15 μg/mL
Description: as §4, §5, §6

Aedes aegypti larvae = assay: as above; conditions: 24 hours; for dosage that can cause 50% mortality: larvae
Description: as §4, §5, §6

[4] = target: AChE extracted from Ae. albopictus larvae (Aedes albopictus, UniProt Q2PGF2); assay: Acetylcholinesterase inhibition assay (in vitro, modified Ellman); type: biochemical
Chain of AChE extracted from Ae. albopictus larvae (Q2PGF2 37-680): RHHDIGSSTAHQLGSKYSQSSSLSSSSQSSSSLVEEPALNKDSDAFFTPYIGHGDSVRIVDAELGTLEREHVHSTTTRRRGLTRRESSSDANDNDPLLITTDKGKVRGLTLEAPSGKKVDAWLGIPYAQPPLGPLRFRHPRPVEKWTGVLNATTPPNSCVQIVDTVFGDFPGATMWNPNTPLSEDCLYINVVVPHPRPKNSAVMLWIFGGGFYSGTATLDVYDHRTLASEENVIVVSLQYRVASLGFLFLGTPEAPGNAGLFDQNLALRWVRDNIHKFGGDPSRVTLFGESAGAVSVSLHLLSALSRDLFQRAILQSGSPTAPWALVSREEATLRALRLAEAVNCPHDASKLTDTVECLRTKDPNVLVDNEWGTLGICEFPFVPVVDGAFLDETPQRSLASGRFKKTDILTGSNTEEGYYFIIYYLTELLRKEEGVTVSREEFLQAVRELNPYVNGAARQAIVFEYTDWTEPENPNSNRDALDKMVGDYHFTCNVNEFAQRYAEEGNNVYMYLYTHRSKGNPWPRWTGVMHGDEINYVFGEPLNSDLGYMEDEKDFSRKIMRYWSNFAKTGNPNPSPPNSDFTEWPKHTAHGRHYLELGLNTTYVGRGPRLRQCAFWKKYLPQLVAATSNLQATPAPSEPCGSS
Description: (§7) For this experiments, the larvae were removed and homogenized at 0°C (keeping the homogenized mixture in plastic tube covered with ice) in 0.05 M-phosphate buffer, pH7.5 (KH2PO4-NaOH) (Merck, USA) by using a glass homogenizer with a polytetrafluoroethylene (PTFE) pestle (5%, w/v, homogenate). The homogenates were centrifuged for 20 min at 5°C and 16000 rpm. These supernatants were collected with pipette and kept inside the ice for studying the AChE inhibition biochemical assay.
(§8) To determine the IC50 values, procedures from Ellman et al., 1961 were modified and applied. Electronic multichannel pipette (Eppendorf, USA) was used to transfer exact 10 μL of enzyme solution to each well of a 96-well microtiter plate further mixed with 20 μL of tested compounds in solution form and 150 μL of cold phosphate buffer which were kept in refrigerator 1–4°C. The assay microtiter plates were incubated at 25°C for 10 min. Inhibitors were dissolved in DMSO (Merck, USA) in several concentration and stocks diluted to give a final concentration of 0.1% DMSO (v/v) were added into test well in separated rows. This was followed by adding 20 μL of acetylthiocholine iodide (ACTHI) (Sigma-Aldrich, USA) (0.4 mM) and DTNB (Sigma-Aldrich, USA) (0.3 mM) to enzyme solution to observe the reaction. Yellowish or colorless solution was observed during reaction for 30 minutes at room temperature. Changes in absorbance were recorded by a microplate readers (Synergy H1 Hybrid Multi-Mode Microplate Reader, USA) at 412 nm. Enzyme concentrations used were within the linear range of their toxicity activity.
(§9) %Inhibition=[Acon−Asam/Acon]×100%,where
(§10) Acon: the absorbance of the control
(§11) Asam: the absorbance of the test sample.
(§12) The IC50 was calculated by log-probit analysis using Polo Plus program. Another set of supernatant was loaded with 20 μL of ACTHI and DTNB solution only which served as control. The mean IC50 significant values were statistically determined by comparison of confident interval.

[5] = target: AChE extracted from Cx. quinquefasciatus larvae (Culex quinquefasciatus, UniProt Q867X2); assay: as above; type: biochemical
Chain of AChE extracted from Cx. quinquefasciatus larvae (Culex quinquefasciatus, UniProt Q867X2) (Q867X2 whole entry): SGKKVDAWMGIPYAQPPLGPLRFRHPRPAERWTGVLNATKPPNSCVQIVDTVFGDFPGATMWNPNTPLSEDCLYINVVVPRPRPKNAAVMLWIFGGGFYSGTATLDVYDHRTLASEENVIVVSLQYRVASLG
Description: as §7, §8, §9, §10, §11, §12

[6] = target: AChE extracted from Ae. aegypti larvae (Aedes aegypti, UniProt A4GND7); assay: as above; type: biochemical
Chain of AChE extracted from Ae. aegypti larvae (A4GND7 37-679): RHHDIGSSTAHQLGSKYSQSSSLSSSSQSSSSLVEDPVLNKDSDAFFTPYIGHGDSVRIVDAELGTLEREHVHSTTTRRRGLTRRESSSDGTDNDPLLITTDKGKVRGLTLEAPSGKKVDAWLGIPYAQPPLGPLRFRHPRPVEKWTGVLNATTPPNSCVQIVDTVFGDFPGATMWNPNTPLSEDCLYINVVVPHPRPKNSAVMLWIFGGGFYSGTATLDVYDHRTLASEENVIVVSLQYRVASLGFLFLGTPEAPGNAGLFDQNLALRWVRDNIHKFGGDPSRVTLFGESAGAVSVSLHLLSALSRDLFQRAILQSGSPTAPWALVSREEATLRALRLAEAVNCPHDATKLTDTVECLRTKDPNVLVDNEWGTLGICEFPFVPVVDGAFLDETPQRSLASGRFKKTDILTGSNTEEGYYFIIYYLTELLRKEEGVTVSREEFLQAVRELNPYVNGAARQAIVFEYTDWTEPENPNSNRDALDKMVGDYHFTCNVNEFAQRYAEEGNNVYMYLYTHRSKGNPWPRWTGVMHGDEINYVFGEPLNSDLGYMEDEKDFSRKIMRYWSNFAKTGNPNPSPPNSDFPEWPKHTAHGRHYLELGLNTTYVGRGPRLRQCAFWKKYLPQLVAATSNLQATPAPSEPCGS
Description: as §7, §8, §9, §10, §11, §12

[7] = test system: blood-starved female Ae. albopictus; assay: Repellent activity (WHO procedure, treated forearm in cage); type: in vivo, Aedes albopictus; conditions: for % repellency: 300 μg/mL
Description: as §1, §2, §3

[8] = test system: blood-starved female Cx. quinquefasciatus; assay: as above; type: in vivo, Culex quinquefasciatus
Description: as §1, §2, §3

[9] = test system: AChE extracted from Cx. quinquefasciatus larvae; assay: Acetylcholinesterase inhibition assay (in vitro, modified Ellman); type: biochemical; conditions: Culex quinquefasciatus; 95% confidence interval in brackets; log-probit
Description: as §7, §8, §9, §10, §11, §12

[10] = Aedes albopictus, 48 h, 48 hours
[11] = Culex quinquefasciatus, 48 h, 48 hours
[12] = even at higher dosage of 100 μg/mL

SMILES	mortality at 25 µg/mL (Ae. albopictus eggs; [10])	mortality at 25 µg/mL [1, 11]	mortality at 25 µg/mL (Ae. aegypti eggs; Aedes aegypti, 48 h, 48 hours)	% repellency [2]	repellent activity (in words) ([2]; 50 to 150 μg/mL)	dosage that can cause 50% mortality (Aedes albopictus larvae)	% larvae mortality (Aedes albopictus larvae; ≤ 9.3 μg/mL)	mortality at 9.3 µg/mL [3]	dosage that can cause 50% mortality [3]	dosage that can cause 50% mortality (Aedes aegypti larvae)	Slope ± S.E of log-probit AChE inhibition curve [4]	Slope ± S.E of log-probit AChE inhibition curve [5]	Slope ± S.E of log-probit AChE inhibition curve [6]	% repellency [7]	repellent activity (in words) ([7]; 50 to 150 μg/mL)	repellent activity (in words) ([8]; 50 to 150 μg/mL)	also measured
C=CCc1cc2c(cc1OC)OCO2 [Asaricin 1, asaricin]	≤ 95%	≤ 95%	≤ 95%	below 65%	very weak	≤ 7 µg/mL	≤ 90%	≤ 80%	≤ 7 µg/mL	≤ 7 µg/mL	2.25±0.14	2.50±0.14	2.07±0.13	below 65%	very weak	very weak	% larvae mortality (Aedes albopictus larvae; ≤ 15 μg/mL): up to 100%; % larvae mortality (Aedes albopictus larvae; ≤ 15 μg/mL, listed as asaricin 1): 100%; % larvae mortality [3]: up to 100%; % larvae mortality ([3]; listed as asaricin 1): 100%; % repellency ([8]; 300 μg/mL): below 65%
C=CCc1cc(OC)c(OC)cc1OC [Isoasarone 2, isoasarone]	≤ 95%	≤ 95%	≤ 95%	below 55%	very weak	≤ 7 µg/mL	≤ 90%	≤ 80%	≤ 7 µg/mL	≤ 7 µg/mL	2.57±0.14	2.29±0.13	2.41±0.15	below 55%	very weak	very weak	mortality at 20 µg/mL (Ae. albopictus eggs; Aedes albopictus, 48 h, read-out: ovicidal activity (% of egg mortality), 20 μg/mL, 48 hours): 80 to 90%; mortality at 20 µg/mL ([1]; Culex quinquefasciatus, 48 h, read-out: ovicidal activity (% of egg mortality), 20 μg/mL, 48 hours): 80 to 90%; mortality at 20 µg/mL (Ae. aegypti eggs; Aedes aegypti, 48 h, read-out: ovicidal activity (% of egg mortality), 20 μg/mL, 48 hours): 80 to 90%
C/C=C/c1cc(OC)c(OC)cc1OC [Trans-asarone 3, trans-asarone]							5–20%	5 to 20%			2.00±0.16	2.46±0.13	3.63±0.14				effect on egg hatchability (Ae. albopictus eggs; [12]): no effect; effect on egg hatchability [1, 12]: no effect; effect on egg hatchability (Ae. aegypti eggs; [12]): no effect; repellent activity (in words) ([2]; in vivo): not significant; % larvae mortality (Aedes aegypti larvae; ≤ 9.3 μg/mL): 5–20%; AChE enzyme inhibition IC50 [9]: 17.4(12.6 to 24.4) μg/mL; repellent activity (in words) ([7]; in vivo): not significant; repellent activity (in words) ([8]; in vivo): not significant
